Results taken from patent publication US12350270B2, “Antimalarial agents” (Merck Sharp & Dohme LLC, priority 2019, dated 2025).

What follows are compounds tested on parasites (ring stage, in human red blood cell culture) (assay: Parasite LDH growth assay (antiparasite potency, Parasite Assay)). Conditions: 0.7% rings, 2% haematocrit, 72 hours at 37° C., LDH readout of parasite growth.
Type: cell-based, Plasmodium falciparum
Experimental: Assessing Antiparasite Potency in a Parasite LDH Growth Assay (Parasite Assay)
The parasite stock was maintained at 4% haematocrit in RPMI-Hepes media buffered with sodium bicarbonate and supplemented with 5% heat inactivated human serum and 0.5% albumax.
On the day of assay set up, a blood smear of the parasite culture was Giemsa stained and counted. The parasitemia was adjusted to 0.7% rings and the haematocrit was diluted to 2% in RPMI-Hepes media buffered with sodium bicarbonate and supplemented with 5% heat inactivated human serum and 0.5% albumax. 30 ul of diluted parasites are then added into 10 ul of media+compound in pre-prepared Greiner TC assay plates. Parasite assay plates were placed in gassed humidified boxes in single layer and allowed to incubate at 37° C. for 72 hours. After 72 hours growth, assay plates are sealed with parafilm and frozen flat, in single file at −80° C. overnight. On the following day, assay plates are allowed to thaw at room temperature for 4 hours to which an LDH assay is performed to measure parasite growth.
Compound `CCC1(CC)CC(=O)N([C@@H]2CCOc3ccc(C(=O)NC4c5ccccc5OCC4O)cc32)C(=N)N1` (single isomer, unassigned) [Example 8A] has an EC50 of 10 nM. Compound `CCC1(CC)CC(=O)N([C@@H]2CCOc3ccc(C(=O)NC4c5ccccc5OCC4O)cc32)C(=N)N1` (single isomer, unassigned) [Example 8B] has an EC50 of 22 nM. For `CCC1(CC)CC(=O)N([C@@H]2CCOc3ccc(C(=O)NC4c5ccccc5OCC4O)cc32)C(=N)N1` (single isomer, unassigned) [Example 8C], the EC50 was 120 nM. In the case of `CCC1(CC)CC(=O)N([C@@H]2CCOc3ccc(C(=O)NC4c5ccccc5OCC4O)cc32)C(=N)N1` (single isomer, unassigned) [Example 8D], the EC50 is reported as 86 nM. Work on `CCC1C[C@@H](N2C(=N)NC(CC)(CC)CC2=O)c2cc(C(=O)N[C@@H]3c4ccccc4C[C@H]3O)ccc2O1` (single isomer, unassigned) [Example 9A] yielded an EC50 of 0.9 nM. Compound `CCC1C[C@@H](N2C(=N)NC(CC)(CC)CC2=O)c2cc(C(=O)N[C@@H]3c4ccccc4C[C@H]3O)ccc2O1` (single isomer, unassigned) [Example 9B] has an EC50 of 170 nM. Work on `CCC1C[C@@H](N2C(=N)NC(CC)(CC)CC2=O)c2cc(C(=O)NC3c4ccccc4OC(C)(C)C3O)ccc2O1` (single isomer, unassigned) [Example 13A] yielded an EC50 of 0.8 nM. `CCC1(CC)CC(=O)N([C@@H]2CC(COC)Oc3ccc(C(=O)N[C@H]4CC(C)(C)Oc5ccccc54)cc32)C(=N)N1` (single isomer, unassigned) [Example 16A] was tested, and the EC50 was 0.6 nM. For `CCC1(CC)CC(=O)N([C@@H]2CC(COC)Oc3ccc(C(=O)N[C@H]4CC(C)(C)Oc5ccccc54)cc32)C(=N)N1` (single isomer, unassigned) [Example 16B], the EC50 was 95 nM. For `CCC1(CC)CC(=O)N([C@@H]2CCOc3ccc(C(=O)N[C@@H]4c5ccccc5OC(C(F)(F)F)C4O)cc32)C(=N)N1` (single isomer, unassigned) [Example 32A], the EC50 was 7.9 nM. In the case of `CCC1(CC)CC(=O)N([C@@H]2CCOc3ccc(C(=O)N[C@@H]4c5ccccc5OC(C(F)(F)F)C4O)cc32)C(=N)N1` (single isomer, unassigned) [Example 32B], the EC50 is reported as 290 nM. Compound `CCC1(CC)CC(=O)N([C@@H]2CC(C)(C)Oc3ccc(C(=O)N[C@@H]4c5ccccc5CC4(C)O)cc32)C(=N)N1` (single isomer, unassigned) [Example 42A] has an EC50 of 1 nM. With `CCC1(CC)CC(=O)N([C@@H]2CC(C)(C)Oc3ccc(C(=O)N[C@@H]4c5ccccc5CC4(C)O)cc32)C(=N)N1` (single isomer, unassigned) [Example 42B] the EC50 was 3.2 nM. In the case of `CC(C)[C@]1(C)CC(=O)N([C@@H]2CC(C)(C)Oc3ccc(C(=O)N[C@@H]4c5ccccc5CC4(C)O)cc32)C(=N)N1` (single isomer, unassigned) [Example 43A], the EC50 is reported as 8.1 nM. For `CC(C)[C@]1(C)CC(=O)N([C@@H]2CC(C)(C)Oc3ccc(C(=O)N[C@@H]4c5ccccc5CC4(C)O)cc32)C(=N)N1` (single isomer, unassigned) [Example 43B], the EC50 was 21 nM. `CCC1(CC)CC(=O)N([C@@H]2CCOc3ccc(C(=O)N[C@@H]4c5ccccc5CC4(C)O)cc32)C(=N)N1` (single isomer, unassigned) [Example 44B] showed an EC50 of 2.8 nM. In the case of `CC1(C)CC(=O)N([C@@H]2CC(C)(C)Oc3ccc(C(=O)N[C@@H]4c5ccccc5CC4(C)O)cc32)C(=N)N1` (single isomer, unassigned) [Example 54B], the EC50 is reported as 160 nM. With `CCC1(CC)C[C@@H](N2C(=N)NC(C)(C)CC2=O)c2cc(C(=O)N[C@@H]3c4ccccc4CC3(C)O)ccc2O1` (single isomer, unassigned) [Example 55A] the EC50 was 24.5 nM. For `CCC1(CC)C[C@@H](N2C(=N)NC(C)(C)CC2=O)c2cc(C(=O)N[C@@H]3c4ccccc4CC3(C)O)ccc2O1` (single isomer, unassigned) [Example 55B], the EC50 was 83.1 nM. In the case of `CCC1(CC)CC(=O)N([C@@H]2CCOc3ccc(C(=O)N[C@H]4c5ccccc5OCC4(C)O)cc32)C(=N)N1` (single isomer, unassigned) [Example 60B], the EC50 is reported as 1.7 nM. For `CCC1(CC)CC(=O)N([C@@H]2CCOc3ccc(C(=O)NC4c5ccccc5OC4(C)COC)cc32)C(=N)N1` (single isomer, unassigned) [Example 64A], the EC50 was 12 nM. `CCC1(CC)CC(=O)N([C@@H]2CCOc3ccc(C(=O)NC4c5ccccc5OC4(C)COC)cc32)C(=N)N1` (single isomer, unassigned) [Example 64B] gave an EC50 of 0.9 nM. In the case of `CCC1(CC)CC(=O)N([C@@H]2CCOc3ccc(C(=O)NC4c5ccccc5OC4(C)COC)cc32)C(=N)N1` (single isomer, unassigned) [Example 64C], the EC50 is reported as 64 nM. `CCC1(CC)CC(=O)N([C@@H]2CCOc3ccc(C(=O)NC4c5ccccc5OC4(C)COC)cc32)C(=N)N1` (single isomer, unassigned) [Example 64D] showed an EC50 of 42 nM. `CCOC(=O)C1(C)Oc2ccccc2C1NC(=O)c1ccc2c(c1)[C@H](N1C(=N)NC(CC)(CC)CC1=O)CCO2` (single isomer, unassigned) [Example 65A] showed an EC50 of 68 nM. `CCOC(=O)C1(C)Oc2ccccc2C1NC(=O)c1ccc2c(c1)[C@H](N1C(=N)NC(CC)(CC)CC1=O)CCO2` (single isomer, unassigned) [Example 65B] was tested, and the EC50 was 2.6 nM. For `CCOC(=O)C1(C)Oc2ccccc2C1NC(=O)c1ccc2c(c1)[C@H](N1C(=N)NC(CC)(CC)CC1=O)CCO2` (single isomer, unassigned) [Example 65C], the EC50 was 26 nM. Compound `CCC1(CC)CC(=O)N([C@H]2c3cc(C(=O)N[C@@H]4c5ccccc5OC(C)(C)[C@H]4O)ccc3OC2(C)COC)C(=N)N1` (single isomer, unassigned) [Example 73A] has an EC50 of 0.3 nM. With `CCC1(CC)CC(=O)N([C@H]2c3cc(C(=O)N[C@@H]4c5ccccc5OC(C)(C)[C@H]4O)ccc3OC2(C)COC)C(=N)N1` (single isomer, unassigned) [Example 73B] the EC50 was 1.7 nM. In the case of `CCC1(CC)CC(=O)N([C@H]2c3cc(C(=O)N[C@H]4CC(C)(C)Oc5ccccc54)ccc3O[C@]2(C)COC)C(=N)N1` (single isomer, unassigned) [Example 74A], the EC50 is reported as 0.3 nM. `CCC1(CC)CC(=O)N([C@H]2c3cc(C(=O)N[C@H]4CC(C)(C)Oc5ccccc54)ccc3O[C@]2(C)COC)C(=N)N1` (single isomer, unassigned) [Example 74B] gave an EC50 of 6.5 nM. For `CCC1(CC)CC(=O)N([C@@H]2CCOc3ccc(C(=O)NC4c5ccccc5OC4(C)C)cc32)C(=N)N1` (single isomer, unassigned) [Example 133A], the EC50 was 1.4 nM. Work on `CCC1(CC)CC(=O)N([C@@H]2CCOc3ccc(C(=O)NC4c5ccccc5OC4(C)C)cc32)C(=N)N1` (single isomer, unassigned) [Example 133B] yielded an EC50 of 17 nM. Work on `CCC1(CC)CC(=O)N([C@@H]2CCOc3ccc(C(=O)NC4c5ccccc5OC4(C)CO)cc32)C(=N)N1` (single isomer, unassigned) [Example 176A] yielded an EC50 of 29.2 nM. `CCC1(CC)CC(=O)N([C@@H]2CCOc3ccc(C(=O)NC4c5ccccc5OC4(C)CO)cc32)C(=N)N1` (single isomer, unassigned) [Example 176C] gave an EC50 of 2.4 nM. `CCC1(CC)CC(=O)N([C@@H]2CCOc3ccc(C(=O)NC4c5ccccc5OC4(C)CO)cc32)C(=N)N1` (single isomer, unassigned) [Example 176D] was tested, and the EC50 was 114 nM. In the case of `CCC1(CC)CC(=O)N(C2c3cc(C(=O)N[C@@H]4c5ccccc5C[C@H]4O)ccc3OC2(C)CO)C(=N)N1` (single isomer, unassigned) [Example 178A], the EC50 is reported as 108 nM. In the case of `CCC1(CC)CC(=O)N(C2c3cc(C(=O)N[C@@H]4c5ccccc5C[C@H]4O)ccc3OC2(C)CO)C(=N)N1` (single isomer, unassigned) [Example 178B], the EC50 is reported as 2.2 nM. Compound `CC[C@]1(C)CC(=O)N(C2CC(C)Oc3ccc(C(=O)N[C@@H]4c5ccccc5OC[C@@]4(C)O)cc32)C(=N)N1` (single isomer, unassigned) [Example 181A] has an EC50 of 189 nM. `CC[C@]1(C)CC(=O)N(C2CC(C)Oc3ccc(C(=O)N[C@@H]4c5ccccc5OC[C@@]4(C)O)cc32)C(=N)N1` (single isomer, unassigned) [Example 181B] showed an EC50 of 7.9 nM. With `CC[C@]1(C)CC(=O)N([C@@H]2CCOc3ccc(C(=O)NC4c5cc(F)ccc5OCC4(C)O)cc32)C(=N)N1` (single isomer, unassigned) [Example 190A] the EC50 was 261 nM. In the case of `CC[C@]1(C)CC(=O)N([C@@H]2CCOc3ccc(C(=O)NC4c5cc(F)ccc5OCC4(C)O)cc32)C(=N)N1` (single isomer, unassigned) [Example 190B], the EC50 is reported as 2.6 nM.

Same assay, conditions: Plasmodium falciparum, Erythrocyte, 72 h, 0.7% rings, 2% haematocrit, 72 hours at 37° C., LDH readout of parasite growth
For `CC(C)[C@]1(C)CC(=O)N([C@@H]2CCOc3ccc(C(=O)NC4c5ccccc5OC(C)(C)C4O)cc32)C(=N)N1` (single isomer, unassigned) [Example 11A], the EC50 was 0.9 nM. In the case of `CCC1(CC)CC(=O)N([C@@H]2CC(COC)Oc3ccc(C(=O)N[C@@H]4c5ccccc5C[C@H]4O)cc32)C(=N)N1` (single isomer, unassigned) [Example 17A], the EC50 is reported as 2.7 nM. `CCC1(CC)CC(=O)N([C@@H]2CCOc3ccc(C(=O)N[C@@H]4c5ccccc5CC4(C)O)cc32)C(=N)N1` (single isomer, unassigned) [Example 44A] was tested, and the EC50 was 1.5 nM. `CC1(C)CC(=O)N([C@@H]2CC(C)(C)Oc3ccc(C(=O)N[C@@H]4c5ccccc5CC4(C)O)cc32)C(=N)N1` (single isomer, unassigned) [Example 54A] gave an EC50 of 190 nM. Work on `CCC1(CC)CC(=O)N([C@@H]2CCOc3ccc(C(=O)N[C@H]4c5ccccc5OCC4(C)O)cc32)C(=N)N1` (single isomer, unassigned) [Example 60A] yielded an EC50 of 1.3 nM.
